According to patent US10807951B2, “mTORC1 modulators” (THE REGENTS OF THE UNIVERSITY OF CALIFORNIA, priority 2017, dated 2020):

Legend:
LAMTOR5 = LAMTOR5 (Homo sapiens, UniProt O43504); experiment: Rhodamine labeling with alkyne probe on purified Lamtor-Rag complexes; format: binding; settings: preliminary experiments
Excerpt: (§1) FIGS. 8A-8B. (FIG. 8A) Structures of CC 2-11 and CC 1-44. CC 2-11 bears an alkyne group on a separate ring from the cysteine-reactive warhead. The presence of the alkyne group enables us to directly label the modified target protein (e.g. Lamtor5) with biotin or rhodamine groups, either in gels or in complex proteomes. […] Thus, CC 2-11 allows precise mapping of the target cysteines as well as accurate identification of the off-targets.
as §1, with “We also synthesized a” for “FIGS. 8A-8B. (FIG. 8A) Structures of”, “1-44 derivative, named” for “2-11 and”, “2-11, which” for “1-44. CC 2-11”, “warhead (FIG. 8A).” for “warhead.”, “will allow” for “allows”

[1] = in vivo; cited from earlier work

Row | SMILES | direct rhodamine labeling of target protein by alkyne probe (LAMTOR5) | bioavailability [1]
1 | C#Cc1cc(COc2cccc3c2ccn3C(=O)C=C)cc(C(F)(F)F)c1 [CC 2-11] | enables rhodamine labeling of a 28 KDa band corresponding to Lamtor5 | 
2 | CO[C@H]1C[C@@H]2CC[C@@H](C)[C@@](O)(O2)C(=O)C(=O)N2CCCC[C@H]2C(=O)O[C@H]([C@H](C)C[C@@H]2CC[C@@H](O)[C@H](OC)C2)CC(=O)[C@H](C)/C=C(\C)[C@@H](O)[C@@H](OC)C(=O)[C@H](C)C[C@H](C)/C=C/C=C/C=C/1C [rapamycin] |  | good
